Holding throughout (assay type): in vivo, NOD/SCID mice
Test [1] has as its target T1, proteasome Chymotrypsin-like (CT-L) activity (Mus musculus, UniProt O09061+O55234).
T1 construct: RBCs were lysed with assay lysis buffer and incubated on ice for 30 minutes; from tissue; host or cells: red blood cells of NOD/SCID mice
The experiment in a line: Pharmacodynamic proteasome activity in murine red blood cells, CT-L. The conditions noted are these: iv, mice, 2 mg/kg i.v. On the procedure:
(§1) Cells were harvested by centrifugation at 1,200 rpm at room temperature. Cell pellets were washed with PBS (phosphate buffered saline) and lysed with assay lysis buffer (50 mM HEPES (N-2-hydroxyethylpiperazine-N′-2-ethanesulfonic acid), pH 7.5; 150 mM NaCl; 1% Triton X-100; 2 mM ATP). Cell lysates were incubated on ice for 30 minutes, mixed by vortex every 5 minutes, and then centrifuged at 12,000 g for 10 minutes. The supernatant was transferred to a 96-well plate. For each assay, 10 μg of total protein were incubated for 1 hour at 37° C. with increasing concentrations (1 nM to 10 μM) of test compound diluted in assay buffer (50 mM tris-HCl (tris(hydroxymethyl)aminomethane-HCl), pH 7.5; 150 mM NaCl). DMSO alone was used as a control in every assay plate. After incubation, a specific fluorogenic proteasome substrate was added to each assay reaction at a final concentration of 40 μM in a total volume of 100 μL. N-Succinyl-Leu-Leu-Val-Tyr-7-amino-4-methylcoumarin (Suc-Leu-Leu-Val-Tyr-AMC) was used for measuring chymotrypsin-like (CT-L) activity, t-butoxycarbonyl-Leu-Arg-Arg-7-amino-4-methylcoumarin (Boc-Leu-Arg-Arg-AMC) for trypsin-like (T-L) activity, and benzyloxycarbonyl-L-leucyl-L-leucyl-L-glutamyl-7-amino-4-methylcoumarin (Z-Leu-Leu-Glu-AMC) for caspase-like (C-L) activity. The excitation wavelength was set at 360 nm and the fluorescence emission wavelength of AMC was detected at 460 nm. The fluorescence of free AMC released during the enzymatic reaction was measured with a SpectraMax M5 fluorescent spectrophotometric plate reader (Molecular Devices, Sunnyvale, Calif.). AMC release rate was measured at 37° C. in a kinetic mode, recording every 5 minutes for 30 minutes. Experiments were performed in triplicate and repeated at least twice.
(§2) All mouse experiments were performed in accordance with approval from the Ontario Cancer Institute institutional animal review board. Five- to six-week-old male non-obese diabetic/severe combined immunodeficient (NOD/SCID) mice were grouped randomly (n=3 mice per group). Mice were administered vehicle (5% DMSO, 20% Cremophor) or compounds of Formula I at different doses either intravenously or by oral gavage, and venous blood samples (20-50 μL) were collected from each mouse over 24 hours. Blood samples were mixed with heparin (APP Pharmaceuticals; Schaumburg, Ill.) in 0.5 mL tubes in accordance with the manufacturer's instructions. After centrifugal separation at 3,000 g for 10 minutes, red blood cells (RBCs) in the bottom layer were transferred into a new tube and stored at −70° C. until use. RBCs were lysed with assay lysis buffer and incubated on ice for 30 minutes, mixing by vortex every 5 minutes, and then centrifuged at 12,000 g for 10 minutes. The supernatant was transferred to a 96-well plate and proteasome activity was measured as described above for tumor cell lysates.
(§3) Proteasome subunit activity (Chymotrypsin-like, Trypsin-like, Caspase-like, CT-L, T-L, C-L, respectively) were monitored over the course of 24 hrs following […] administration of representative compounds of Formula I. NOD/SCID mice were treated with compounds of Formula I (2 mg/kg by iv administration) or vehicle control and carfilzomib for up to 24 hours, as described above. Table 9 summarizes the data on pharmacodynamic activity of representative compounds of Formula I following a dose of 2 mg/kg intravenous (i.v) administration to mice. Data are presented as mean residual activity (SEM) relative to vehicle treated controls.

Test [2] addresses T2, proteasome Caspase-like (C-L) activity (Mus musculus, UniProt P70195+Q60692).
T2 construct: RBCs were lysed with assay lysis buffer and incubated on ice for 30 minutes; from tissue; host or cells: red blood cells of NOD/SCID mice
Briefly: Pharmacodynamic proteasome activity in murine red blood cells, C-L. To be noted: iv, mice, 2 mg/kg i.v., time 0, read-out: Caspase-like (C-L) mean residual activity relative to vehicle treated controls. On the procedure:
as §1, §2, §3

The target of test [3] is T3, proteasome Trypsin-like (T-L) activity (Mus musculus, UniProt P70195+Q9R1P1).
T3 construct: RBCs were lysed with assay lysis buffer and incubated on ice for 30 minutes; from tissue; host or cells: red blood cells of NOD/SCID mice
Briefly: Pharmacodynamic proteasome activity in murine red blood cells, T-L. The conditions noted are these: iv, mice, 2 mg/kg i.v., time 0, read-out: Trypsin-like (T-L) mean residual activity relative to vehicle treated controls. How it is done:
as §1, §2, §3

Where two headings read alike, the source gives them in different places.

With `CC(C)C[C@H](NC(=O)[C@H](CCc1ccccc1)NC(=O)CN1CCOCC1)C(=O)N[C@@H](Cc1ccccc1)C(=O)N[C@@H](CC(C)C)C(=O)[C@@]1(C)CO1` [Carfilzomib, carfilzomib, reference compound], the remaining activity at 2 mg/kg in test [1] (30 min, read-out: Chymotrypsin-like (CT-L) mean residual activity relative to vehicle treated controls) is 48%; in test [1] (24 hrs, read-out: Chymotrypsin-like (CT-L) mean residual activity relative to vehicle treated controls), 46%; in test [1] (time 0, read-out: Chymotrypsin-like (CT-L) mean residual activity relative to vehicle treated controls), 100%; in test [2] it was 100%; in test [3] it was 100%.

For the origin of these results see US20150218212A1, “FLUORINATED EPOXYKETONE-BASED TETRAPEPTIDE COMPOUNDS AND USES THEREOF AS PROTEASOME INHIBITORS” (FLUORINOV PHARMA INC., priority 2012, published 2015).
